Measurements taken from publication PMC8772930, “Experimental and Molecular Docking Studies of Cyclic Diphenyl Phosphonates as DNA Gyrase Inhibitors for Fluoroquinolone-Resistant Pathogens” (Antibiotics, 2022).

Biological target: T1, DNA gyrase (Escherichia coli, UniProt P0AES6)
T1 construct: gene gyrB; with DNA gyrase subunit A (GyrA)
Test: DNA supercoiling inhibition assay (Inspiralis E. coli gyrase microplate kit, agarose gel)
Type: biochemical

Structure (SMILES): NN1C=CCCC1P(=O)(Oc1ccccc1)Oc1ccccc1 (stereo not shown) [2a, cyclic diphenylphosphonate 2a]
- IC50: 12 µM
